# Like-named read-outs stand apart in the source and are kept apart here.
# How the values were obtained:
# [1] = cited from earlier work
# [2] = tested on: diabetic patients with grade 2 and grade 3 ulcers (Wagner classification); format: in vivo, human
# Protocol: In order to assess the effect of sildenafil maleate in treatment of diabetic foot ulcers, a 12-week open-label longitudinal study was conducted to compare the conventional treatment and the conventional treatment with simultaneous administration of sildenafil maleate.
# Diabetic patients with grade 2 and grade 3 ulcers were selected, according to Wagner classification and complying with the following inclusion and exclusion criteria:
# Inclusion Criteria: • Male or female patients with type-2 Diabetes Mellitus • Age younger than 80 years • Grade-2 or -3 foot or leg ulcer, of any origin according to Wagner classification, without compromising tendons nor bone, with a progression time not higher than 3 months. • Presence or absence of localized infection • Without peripheral vascular obstruction
# Exclusion Criteria • Type-1 Diabetes Mellitus patients • Grade-4 foot or leg ulcer according to Wagner classification or foot or knuckle necrosis • Peripheral vascular obstruction (ankle/arm index lower than 0.3) • Patients with creatinine higher than 1.2 mg/dL or blood urea nitrogen (BUN) higher than 50 • Transaminases 2 times above baseline • Microalbuminuria higher than 100
# Patients who meet inclusion and exclusion criteria, who voluntarily accept to participate in the study and further signing a written consent, are randomly assigned to two study groups:
# Group I: Conventional treatment
# Group II: Conventional treatment with simultaneous administration of sildenafil maleate.
# Patients are required to perform wound treatment and to register lesion progression.
# Visit 1 • Signature of written consent • Physical examination • Petition of clinical lab examinations: complete blood count, glycosilated hemoglobin (HbA1c), total colesterol, total lipids, triglycerides, HDL-colesterol, urea, creatinine, microalbumina, aspartate aminotransferase (TGO), alanine aminotransferase (TGP), reactive, ultra-sensitive C-protein (PCR-u), urine test, pre and postprandial glycemia, lesion culture when required. • Conventional healing of lesion • Arterial Doppler request of affected limb • Provide treatment with antibiotics when necessary
# Visit 2 (1 to 3 Days after Visit 1) • Interpretation of lab examination and Doppler study • Clinical/physical lesion examination • Patient inclusion/exclusion decision into the study • Random assignment of study groups • Registration of lesion characteristics (lesion photographs) • Assessment of metabolic control
# Visit 3 (1 to 3 Days after Visit 2) • Registration of lesion progression (lesion photographs) • Assessment of patient's metabolic control • Delivery of corresponding medicaments (antibiotics and sildenafil maleate as applicable) • Registration de adverse events
# Visit 4 Until Week 12 of Study (2 to 3 Times Per Week) • Registration of lesion progression (lesion photographs) • Registration de adverse events • Assessment of metabolic control
# Visit 5 (1 to 5 Days after Final Visit) • Registration of lesion progression (lesion photographs) • Registration of adverse events • Compliance with study medication intake • Education for future lesion prevention
# Wound treatment applied to all patients during each visit consists of cleaning with […] and distilled water, using sterile material; ointment MEBO® (Moist exposed Burn Treatment) was locally applied and dressing with sterile gauze when needed.
# Study medication was delivered in accordance with the previously established protocol; compliance with medication intake and presence of adverse events was verified. Medication was suspended in case of showing any adverse effect, even a mild event associated with study medicament (sildenafil maleate).
substance,measurement,setting,value
sildenafil maleate,absorption compared with sildenafil citrate,[1]; in vivo,faster absorption
same,bioequivalence with sildenafil citrate,[1]; in vivo,bioequivalent
same,plasma protein binding,[1]; in vivo,mostly bound to plasma proteins
same,delay of maximum peak,[1]; ingested during a high fat content meal,60 min
same,time to maximum concentration,"[1]; oral administration, fasting subjects",60 min
same,distribution volume,[1]; stationary media (steady state),105 L
same,"effect on macro and microcirculation, granulation and healing of ulcers","[2]; 10-mg daily dose, oral, diabetic foot patients",improvement in macro and microcirculation
same,recovery of patients with previous amputations,[2]; Group II patients who had previous amputations,total recovery
same,blood flow and health status of lower limbs after end of treatment,[2]; Group II patients whose treatment concluded before the 12 weeks,kept an improvement in blood flow
same,patients who obtained a satisfactory result (lesion healing),[2]; Group II: conventional treatment with simultaneous sildenafil maleate,100%
same,adverse events,[2]; in vivo,did not experience adverse events
same,side effects,"[2]; in vivo, po",does not show side effects
same,lower healing time than group with conventional treatment,[2]; patients with grade 2 ulcers,20 days
same,Average healing time (Group II),[2]; ulcer grade 2 according to Wagner scale,47 days
same,Average healing time (Group II),[2]; ulcer grade 3 according to Wagner scale,81 days
same,Average healing time (Group II),[2]; ulcer grades 2 and 3 according to Wagner scale,55 days
same,decrease of recovery time,"[2]; vs conventional treatment, regardless of ulcer grade and lesion area",about 20 days
